Measurements as given in patent US20230381321A1, “CAMPTOTHECIN CONJUGATES” (priority 2022, published 2023).

How the values were obtained:
Assay type in all cases: cell-based
[1] = tested on: renal carcinoma cells (786-O); test: In vitro potency (CellTiter-Glo, 96 h) on 786-O; details: Homo sapiens, 786-0, 96 h, read-out: 786-O IC50
In short: (§1)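 STR-verified lines, <2 mo post-thaw; log-phase cells plated in RPMI 1640/20% FBS for 24 h; […] serial dilutions (made at 4x, diluted into wells) added; luminescence read for growth inhibition.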

melanoma cells (A2058) = test: In vitro potency (CellTiter-Glo, 96 h) on A2058; details: Homo sapiens, A2058, 96 h, read-out: A2058 IC50
In short: as §1

[2] = tested on: pancreatic cancer cells (BxPC3); test: In vitro potency (CellTiter-Glo, 96 h) on BxPC3; details: Homo sapiens, BXPC-3, 96 h, read-out: BxPC3 IC50
In short: as §1

[3] = tested on: non-small-cell lung cancer cells (Calu1); test: In vitro potency (CellTiter-Glo, 96 h) on Calu1; details: Homo sapiens, Calu-1, 96 h, read-out: Calu1 IC50
In short: as §1

[4] = tested on: anaplastic large cell lymphoma cells (DEL); test: In vitro potency (CellTiter-Glo, 96 h) on DEL; details: 96 h, read-out: DEL IC50
In short: as §1

[5] = tested on: anaplastic large cell lymphoma cells (DELBVR); test: In vitro potency (CellTiter-Glo, 96 h) on DELBVR; details: 96 h, read-out: DELBVR IC50
In short: as §1

[6] = tested on: anaplastic large cell lymphoma cells (Karpas299); test: In vitro potency (CellTiter-Glo, 96 h) on Karpas299; details: Homo sapiens, KARPAS-299, 96 h, read-out: Karpas299 IC50
In short: as §1

[7] = tested on: Hodgkin's lymphoma cells (L540cy); test: In vitro potency (CellTiter-Glo, 96 h) on L540cy; details: L540cy, 96 h, read-out: L540cy IC50
In short: as §1

[8] = In vitro potency (CellTiter-Glo, 96 h) on Ls174T; details: Homo sapiens, LS174T, 96 h, read-out: Ls174T IC50
In short: as §1

[9] = tested on: breast cancer cells (MDA-MB-231); test: In vitro potency (CellTiter-Glo, 96 h) on MDA-MB-231; details: Homo sapiens, MDA-MB-231, 96 h, read-out: MDAMB 231 IC50
In short: as §1

[10] = tested on: acute myeloid leukemia cells (MOLM-13); test: In vitro potency (CellTiter-Glo, 96 h) on MOLM-13; details: Homo sapiens, MOLM-13, 96 h, read-out: MOLM-13 IC50
In short: as §1

[11] = tested on: B-lymphocyte cancer cells (SU-DHL4); test: In vitro potency (CellTiter-Glo, 96 h) on SU-DHL4; details: Homo sapiens, SU-DHL-4, 96 h, read-out: SU-DHL-4 IC50
In short: as §1

SMILES: CC[C@@]1(O)C(=O)OCc2c1cc1n(c2=O)Cc2c-1nc1cc3c(cc1c2CO)CCO3 [Compound 35]
- IC50 [1]: 4 nM
- IC50 (melanoma cells (A2058)): 2 nM
- IC50 [2]: 6 nM
- IC50 [3]: 9 nM
- IC50 [4]: 0.6 nM
- IC50 [5]: 1 nM
- IC50 [6]: 4 nM
- IC50 [7]: 2 nM
- IC50 [8]: 3 nM
- IC50 [9]: 5 nM
- IC50 [10]: 22 nM
- IC50 [11]: 1 nM
